Here are results for two compounds from patent US7566732B2, “Rhodanine compositions for use as antiviral agents” (priority 2003, dated 2009).

For the test, the target named is EVp28 (Gst-Evp28) ubiquitin ligase (Ectromelia virus, UniProt Q85318). Nature of the test: biochemical.

As a reminder, the IC50 is the concentration that inhibits the measured activity by half. For the compound `O=C1/C(=C\c2ccc(-c3cccc(C(F)(F)F)c3)o2)SC(=S)N1Cc1ccccc1` [Compound 54, (5E)-3-benzyl-2-thioxo-5-({5-[3-(trifluoromethyl)phenyl]-2-furyl}methylene)-1,3-thiazolidin-4-one], it took 16 nM to reach half-maximal inhibition (IC50). Turning to `O=C1/C(=C\c2nc3ccccc3[nH]2)SC(=S)N1c1ccc(F)cc1` [Compound 307], the IC50 was determined as 92 nM.
